Data from patent publication US8389526B2, “3-heteroarylmethyl-imidazo[1,2-b]pyridazin-6-yl derivatives” (Novartis AG, priority 2009, dated 2013).
≈ marks a conversion by molar mass, not a printed value. Like-named read-outs stand apart in the source and are kept apart here.

Columns and labels:
[1] = test system: MET-amplified gastric cancer cell line GTL-16; test: GTL-16 proliferation assay (MTS); type: cell-based; settings: Homo sapiens, GTL-16 cells, 72 h incubation
Outline: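 GTL-16 cells were seeded at 3000/well in DMEM with 10% FCS. After 24 h they were treated in triplicate with a 10-point, 3-fold dilution series ([…]; DMSO-only control) for 72 h. Viable cells were measured by MTS, with OD 490 nm read after 30 min.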

[2] = Solubility assay at pH 7 and in FaSSIF; type: physicochemical; settings: thermodynamic from solid
Procedure: A number of compounds of the present invention were assayed in a solubility assay at pH 7 and in fasted state simulated intestinal fluid (FaSSIF).
Solubility of the compounds was determined by suspending about 0.3 to 1.0 mg of drug substance in 0.1 mL of phosphate buffer at pH 7 and respectively FaSSIF.
Buffer pH 7 was obtained from MERCK as Tritisol® Phosphate Buffer. The Medium to Simulate the Fasted State Upper Small Intestine (Fasted State Simulated Intestinal Fluid) or FaSSIF was developed according to J. Dressmann publication Jantratid Ekarat; Janssen Niels; Reppas Christos; Dressman Jennifer B Dissolution media simulating conditions in the proximal human gastrointestinal tract: an update. Pharmaceutical research (2008), 25(7), 1663-76.
Composition from the FaSSIF is described in the following Table 3.
The suspensions or solutions were stirred over night at room temperature. After separation of the un-dissolved part by filtration (centrifugation using 0.45 μm PVDF or PTFE filters), the solutions were if necessary, diluted with acetonitrile to obtain concentrations below 1.0 mg/mL prior to UPLC analysis. Samples were then analyzed by UPLC to get the concentrations level of compound in the different media. Prior to analysis a method has been developed for each compound with an according calibration.
UPLC parameters: Column Aquity50*2.1 mm C18 1.7ym; Column temperature: 40° C.; mobile phase A: water MilliQ+0.1% TFA and B acetonitrile, gradient grade, +0.1% TFA.

[3] = FaSSIF (fasted state simulated intestinal fluid), fassif, fasted state simulated intestinal fluid, stirred over night at room temperature, read-out: Solubility FaSSIF
[4] = aqueous buffer, phosphate buffer pH 7, stirred over night at room temperature, read-out: Solubility Buffer pH 7

| SMILES | IC50 [1] [nM] | solubility [2, 3] [µg/mL] | solubility [2, 4] [µg/mL] |
| --- | --- | --- | --- |
| C[C@@H](c1c(F)cc2ncccc2c1F)c1cnc2ccc(N3CCNC(=O)C3)nn12 (single isomer, unassigned) [Example 5] | 3.6 | 164 (≈ 402 µM) | 91 (≈ 223 µM) |
| C[C@@H](c1c(F)cc2ncccc2c1F)c1cnc2ccc(N3CCN(C)C(=O)C3)nn12 [Example 2, 4-{3-[(S)-1-(5,7-Difluoro-quinolin-6-yl)-ethyl]-imidazo[1,2-b]pyridazin-6-yl}-1-methyl-piperazin-2-one] | 1.7 | 289 (≈ 684 µM) | 29 (≈ 68.6 µM) |
| C[C@@H](c1c(F)cc2ncccc2c1F)c1cnc2ccc(N3CCNCC3)nn12 [Example 7, 5,7-Difluoro-6-[(S)-1-(6-piperazin-1-yl-imidazo[1,2-b]pyridazin-3-yl)-ethyl]-quinoline] | 6.4 | 172 (≈ 436 µM) | 248 (≈ 629 µM) |
| CC(=O)N1CCN(c2ccc3ncc([C@@H](C)c4c(F)cc5ncccc5c4F)n3n2)CC1 [Example 11, 1-(4-{3-[(S)-1-(5,7-Difluoro-quinolin-6-yl)-ethyl]-imidazo[1,2-b]pyridazin-6-yl}-piperazin-1-yl)ethanone] | 7.2 | 1350 (≈ 3100 µM) | 32 (≈ 73.3 µM) |
| C[C@@H](c1cc2cnn(C)c2cc1F)c1cnc2ccc(N3CCNC(=O)C3)nn12 [Example 28, 4-{3-[(S)-1-(6-Fluoro-1-methyl-1H-indazol-5-yl)-ethyl]-imidazo[1,2-b]pyridazin-6-yl}-piperazin-2-one] | 26 | 374 (≈ 951 µM) | 117 (≈ 297 µM) |
